Test results taken from patent US12522576B2, “Polymorphs of D9-THC naphthoylester” (priority 2019, dated 2026).
≈ marks a conversion by molar mass, not a printed value.

Tests used:
Assay type in all cases: physicochemical
[1] = Visual solubility of Form B
Protocol: Solubility of D9-THC-naphthoylester, Form B (Batch 2) was determined by visual assessment in various solvents at RT and 50° C. Aliquots of solvent were added to 20 mg of solids at room temperature and 25 mg of solids at 50° C. until complete dissolution or until a maximum volume of 1 mL was added.

Gravimetric solubility = conditions: thermodynamic from solid
Protocol: Additional solids or solvents were added to visual solubility samples with vials less than 100 mg/mL to produce slurries at 20 and 50° C. for the subsequent equilibrium solubility assessment. The slurries were stirred at 20 and 50° C. overnight, filtered through 0.2 μm syringe filters and evaporated to dryness under reduced pressure at ambient temperature. Gravimetric solubility was calculated by dividing the dry solids residue mass (mg) by the solvent mass (g). The mg/g solubility values were then converted to mg/mL using solvent density.
The solubility of Group D acetone and DMF solvates were assessed in the corresponding solvents.

[2] = D9 solubility in the liquors at isolation temperature; conditions: organic solvent or mixture, thermodynamic from solid
Protocol: At the end of each experiment, suspensions were equilibrated at the isolation temperature (25 or 5° C.) for at least 18 hours and the solids and liquors separated by centrifugation at the isolation temperature. The Exo/D9/D8 ratio (Exo-D9-THC-naphthoylester impurity/D9-THC-naphthoylester/D8-THC-naphthoylester) was determined in both the isolated solids and the liquors, from which the % Exo-depletion in the isolated solids was calculated. Several solids were also isolated at elevated temperatures to assess the impact of the isolation temperature on Exo-impurity depletion.
In addition, the solubility of D9 in the liquors was determined in most of the explored solvents and used to estimate the yield.

With `CCCCCc1cc(OC(=O)c2ccc3ccccc3c2)c2c(c1)OC(C)(C)[C@@H]1CCC(C)=C[C@@H]21` [Form B, (6aR,10aR)-6a,7,8,10a-tetrahydro-6,6,9-trimethyl-3-pentyl-6H-dibenzo[b,d]pyran-1-yl ester] the solubility ([1]; alcohols, organic solvent or mixture, thermodynamic from solid, read-out: Solubility) was under 10 mg/mL, the solubility ([1]; common organic solvents, organic solvent or mixture, thermodynamic from solid, read-out: Solubility) was over 100 mg/mL and the solubility ([1]; organic solvent or mixture, thermodynamic from solid, solvent 1,4-Dioxane, RT, read-out: Visual Solubility at RT) was over 404 mg/mL. The solubility ([1]; organic solvent or mixture, thermodynamic from solid, solvent 2Me-THF, RT, read-out: Visual Solubility at RT) was over 368 mg/mL, the solubility ([1]; organic solvent or mixture, thermodynamic from solid, solvent Acetone/MeOH (1:3), 50° C., read-out: Visual Solubility at 50° C.) was 25 to 40 mg/mL (≈ 53.3 to 85.4 mM) and the solubility ([1]; organic solvent or mixture, thermodynamic from solid, solvent Acetone/MeOH (1:3), RT, read-out: Visual Solubility at RT) was 10 to 20 mg/mL (≈ 21.3 to 42.7 mM). It also gave a solubility ([1]; organic solvent or mixture, thermodynamic from solid, solvent Acetone, RT, read-out: Visual Solubility at RT) of 94 to 376 mg/mL (≈ 201 to 802 mM), a solubility ([1]; organic solvent or mixture, thermodynamic from solid, solvent BuOH/MeOH (1:3), 50° C., read-out: Visual Solubility at 50° C.) of 26 to 51 mg/mL (≈ 55.5 to 109 mM) and a solubility ([1]; organic solvent or mixture, thermodynamic from solid, solvent BuOH/MeOH (1:3), RT, read-out: Visual Solubility at RT) of under 10 mg/mL. It also gave a solubility ([1]; organic solvent or mixture, thermodynamic from solid, solvent Cyclohexane, RT, read-out: Visual Solubility at RT) of 92 to 368 mg/mL (≈ 196 to 785 mM), a solubility ([1]; organic solvent or mixture, thermodynamic from solid, solvent DCM, RT, read-out: Visual Solubility at RT) of over 404 mg/mL and a solubility ([1]; organic solvent or mixture, thermodynamic from solid, solvent DMSO, 50° C., read-out: Visual Solubility at 50° C.) of 25 to 50 mg/mL (≈ 53.3 to 107 mM). For the same compound, the solubility ([1]; organic solvent or mixture, thermodynamic from solid, solvent DMSO, RT, read-out: Visual Solubility at RT) was 18 to 46 mg/mL (≈ 38.4 to 98.2 mM), the solubility ([1]; organic solvent or mixture, thermodynamic from solid, solvent EtOAc, RT, read-out: Visual Solubility at RT) was over 372 mg/mL and the solubility ([1]; organic solvent or mixture, thermodynamic from solid, solvent EtOH, 50° C., read-out: Visual Solubility at 50° C.) was 25 to 50 mg/mL (≈ 53.3 to 107 mM). For the same compound, the solubility ([1]; organic solvent or mixture, thermodynamic from solid, solvent EtOH, RT, read-out: Visual Solubility at RT) was under 9 mg/mL, the solubility ([1]; organic solvent or mixture, thermodynamic from solid, solvent Heptane, 50° C., read-out: Visual Solubility at 50° C.) was 127 to 254 mg/mL (≈ 271 to 542 mM) and the solubility ([1]; organic solvent or mixture, thermodynamic from solid, solvent Heptane, RT, read-out: Visual Solubility at RT) was 20 to 51 mg/mL (≈ 42.7 to 109 mM). The solubility ([1]; organic solvent or mixture, thermodynamic from solid, solvent IPA:water (9:1), 50° C., read-out: Visual Solubility at 50° C.) was under 27 mg/mL, the solubility ([1]; organic solvent or mixture, thermodynamic from solid, solvent IPA:water (9:1), RT, read-out: Visual Solubility at RT) was under 10 mg/mL and the solubility ([1]; organic solvent or mixture, thermodynamic from solid, solvent IPA, 50° C., read-out: Visual Solubility at 50° C.) was 25 to 50 mg/mL (≈ 53.3 to 107 mM). The solubility ([1]; organic solvent or mixture, thermodynamic from solid, solvent IPA, RT, read-out: Visual Solubility at RT) was under 10 mg/mL, the solubility ([1]; organic solvent or mixture, thermodynamic from solid, solvent MIBK, RT, read-out: Visual Solubility at RT) was 105 to 420 mg/mL (≈ 224 to 896 mM) and the solubility ([1]; organic solvent or mixture, thermodynamic from solid, solvent MTBE, RT, read-out: Visual Solubility at RT) was 93 to 372 mg/mL (≈ 198 to 794 mM). It also gave a solubility ([1]; organic solvent or mixture, thermodynamic from solid, solvent MeCN, 50° C., read-out: Visual Solubility at 50° C.) of 25 to 50 mg/mL (≈ 53.3 to 107 mM), a solubility ([1]; organic solvent or mixture, thermodynamic from solid, solvent MeCN, RT, read-out: Visual Solubility at RT) of 9 to 18 mg/mL (≈ 19.2 to 38.4 mM) and a solubility ([1]; organic solvent or mixture, thermodynamic from solid, solvent MeOH, 50° C., read-out: Visual Solubility at 50° C.) of under 25 mg/mL. It also gave a solubility ([1]; organic solvent or mixture, thermodynamic from solid, solvent MeOH, RT, read-out: Visual Solubility at RT) of under 9 mg/mL, a solubility ([1]; organic solvent or mixture, thermodynamic from solid, solvent THF/MeOH (1:1), RT, read-out: Visual Solubility at RT) of 98 to 392 mg/mL (≈ 209 to 836 mM) and a solubility ([1]; organic solvent or mixture, thermodynamic from solid, solvent Toluene, RT, read-out: Visual Solubility at RT) of over 376 mg/mL. The solubility ([1]; thermodynamic from solid, solvent Water, 50° C., read-out: Visual Solubility at 50° C.) was under 24 mg/mL, the solubility ([1]; thermodynamic from solid, solvent Water, RT, read-out: Visual Solubility at RT) was under 9 mg/mL and the solubility ([1]; water) was “poorly soluble”. For the same compound, the solubility (Gravimetric solubility; 20 °C, organic solvent or mixture, solvent Acetone/MeOH (1:3), RT, read-out: Gravimetric Solubility at RT) was about 9 mg/mL (≈ 19.2 mM), the solubility (Gravimetric solubility; 20 °C, organic solvent or mixture, solvent BuOH/MeOH (1:3), RT, read-out: Gravimetric Solubility at RT) was about 6 mg/mL (≈ 12.8 mM) and the solubility (Gravimetric solubility; 20 °C, organic solvent or mixture, solvent EtOH, RT, read-out: Gravimetric Solubility at RT) was about 7 mg/mL (≈ 14.9 mM). The solubility (Gravimetric solubility; 20 °C, organic solvent or mixture, solvent Heptane, RT, read-out: Gravimetric Solubility at RT) was about 33 mg/mL (≈ 70.4 mM), the solubility (Gravimetric solubility; 20 °C, organic solvent or mixture, solvent IPA:water (9:1), RT, read-out: Gravimetric Solubility at RT) was about 3 mg/mL (≈ 6.4 mM) and the solubility (Gravimetric solubility; 20 °C, organic solvent or mixture, solvent IPA, RT, read-out: Gravimetric Solubility at RT) was about 7 mg/mL (≈ 14.9 mM). It also gave a solubility (Gravimetric solubility; 20 °C, organic solvent or mixture, solvent MeCN, RT, read-out: Gravimetric Solubility at RT) of about 14 mg/mL (≈ 29.9 mM), a solubility (Gravimetric solubility; 20 °C, organic solvent or mixture, solvent MeOH, RT, read-out: Gravimetric Solubility at RT) of about 3 mg/mL (≈ 6.4 mM) and a solubility (Gravimetric solubility; 20 °C, solvent Water, RT, read-out: Gravimetric Solubility at RT) of under 1 mg/mL. For the same compound, the solubility (Gravimetric solubility; organic solvent or mixture, solvent Acetone/MeOH (1:3), 50° C., read-out: Gravimetric Solubility at 50° C.) was about 41 mg/mL (≈ 87.5 mM), the solubility (Gravimetric solubility; organic solvent or mixture, solvent BuOH/MeOH (1:3), 50° C., read-out: Gravimetric Solubility at 50° C.) was about 24 mg/mL (≈ 51.2 mM) and the solubility (Gravimetric solubility; organic solvent or mixture, solvent EtOH, 50° C., read-out: Gravimetric Solubility at 50° C.) was about 29 mg/mL (≈ 61.9 mM). The solubility (Gravimetric solubility; organic solvent or mixture, solvent IPA:water (9:1), 50° C., read-out: Gravimetric Solubility at 50° C.) was about 18 mg/mL (≈ 38.4 mM), the solubility (Gravimetric solubility; organic solvent or mixture, solvent IPA, 50° C., read-out: Gravimetric Solubility at 50° C.) was about 45 mg/mL (≈ 96 mM) and the solubility (Gravimetric solubility; organic solvent or mixture, solvent MeCN, 50° C., read-out: Gravimetric Solubility at 50° C.) was about 35 mg/mL (≈ 74.7 mM). The solubility (Gravimetric solubility; organic solvent or mixture, solvent MeOH, 50° C., read-out: Gravimetric Solubility at 50° C.) was about 12 mg/mL (≈ 25.6 mM), the solubility (Gravimetric solubility; solvent Water, 50° C., read-out: Gravimetric Solubility at 50° C.) was under 1 mg/mL and the solubility ([2]; 1,4-Dioxane/MeOH (1:9), 25 °C, batch 5, 1,4-Dioxane/MeOH (1:9), seed E/G, heat T 50, isolation T 25, SP 3, 4.8 mL/g) was 6 mg/mL (≈ 12.8 mM). The solubility ([2]; Anisole/MeOH (1:9), 5 °C, batch 5, Anisole/MeOH (1:9), seed G, heat T 40, isolation T 5, SP 10, 30.0 mL/g) was 9.8 mg/mL (≈ 20.9 mM) and the solubility ([2]; Cyclohexanone/EtOH (1:9), 25 °C, batch 5, Cyclohexanone/EtOH (1:9), seed G/H, heat T 55, isolation T 25, SP 16, 5.0 mL/g) was 21.1 mg/mL (≈ 45 mM).
